Data reported in ChEMBL document CHEMBL1201862, “PubChem BioAssay data set” (2004).
The source made the active and inactive calls. Rule as the data show it, for most assays here: actives have a measured EC50 and inactives only a lower limit.

Columns and labels:
[1] = HIV-1 AD8 envelope cell-cell fusion blockers – cherry-pick, dose response (AID 652062); format: functional, cell-based;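 also: luciferase signal from cell-cell fusion driven by HIV-1 clade B AD8 Env; potency is for inhibitors of fusion seen as a drop in luminescence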
[2] = target: T1, Corticotropin-releasing factor receptor 2/Corticotropin-releasing factor-binding protein (Homo sapiens, UniProt P24387+Q13324); assay: activators of CRF receptor 2 with binding protein – uHTS hits, confirmation (AID 602473); format: functional; conditions: read-out: EC50_Mean
T1 sequence (Q13324 whole entry): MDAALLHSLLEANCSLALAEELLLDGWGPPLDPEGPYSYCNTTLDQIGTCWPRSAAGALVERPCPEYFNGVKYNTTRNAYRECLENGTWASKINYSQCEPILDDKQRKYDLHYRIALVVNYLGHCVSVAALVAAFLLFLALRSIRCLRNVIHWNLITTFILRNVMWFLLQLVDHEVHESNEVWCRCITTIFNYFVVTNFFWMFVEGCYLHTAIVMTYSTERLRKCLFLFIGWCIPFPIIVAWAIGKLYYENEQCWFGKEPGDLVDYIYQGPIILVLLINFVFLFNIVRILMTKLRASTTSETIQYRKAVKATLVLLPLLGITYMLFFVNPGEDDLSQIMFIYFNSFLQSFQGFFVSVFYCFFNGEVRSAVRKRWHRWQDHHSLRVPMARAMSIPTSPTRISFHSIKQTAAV
T1 sequence (P24387 whole entry): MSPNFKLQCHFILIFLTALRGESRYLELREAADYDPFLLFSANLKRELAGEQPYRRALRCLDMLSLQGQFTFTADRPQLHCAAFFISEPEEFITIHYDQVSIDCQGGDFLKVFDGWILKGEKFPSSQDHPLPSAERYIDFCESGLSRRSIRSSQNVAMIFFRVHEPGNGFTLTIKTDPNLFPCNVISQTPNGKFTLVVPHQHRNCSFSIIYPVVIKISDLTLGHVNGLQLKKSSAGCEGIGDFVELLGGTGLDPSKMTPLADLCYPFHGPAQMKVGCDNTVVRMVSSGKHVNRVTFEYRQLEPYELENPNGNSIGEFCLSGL

[3] = target: T2, Ubiquitin-conjugating enzyme E2 N (Homo sapiens, UniProt P61088); format: functional;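 also: Dose-response confirmation in a TR-FRET assay detecting UBC13-driven polyubiquitin chain formation, inhibition measured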
T2 sequence (P61088 whole entry): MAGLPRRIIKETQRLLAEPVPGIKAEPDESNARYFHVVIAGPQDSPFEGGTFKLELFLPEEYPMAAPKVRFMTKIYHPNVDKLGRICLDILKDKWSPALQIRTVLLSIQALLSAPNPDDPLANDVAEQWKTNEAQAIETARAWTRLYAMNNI

[4] = viability of HCT116 lacking mutant beta-catenin – cell-based, human colon tumor, dose response (AID 1045); format: functional;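 also: HCT116 colon tumor cells with beta catenin knocked out; cells exposed to compound for 60 hours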
[5] = viability of PTEN-deleted HCT116 cells – cell-based, HCT116 PTEN knockout, dose response (AID 1047); format: functional;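 also: HCT116 colon tumor cells with PTEN knocked out; cells exposed to compound for 60 hours before readout; potency for loss of cell viability measured by luminescence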
[6] = P. falciparum Dd2 growth inhibitors, dose response, SYBR Green, cherry-picked samples (AID 1159567); format: functional, cell-based
[7] = target: T3, RNA-binding protein pos-1 (Caenorhabditis elegans, UniProt G5EF15); assay: disruptors of C. elegans POS-1 RNA interaction – biochemical, fluorescence polarization, dose response (AID 1964);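 also: purified POS-1 fused to maltose binding protein made in E. coli; potency of compounds blocking POS-1 binding to fluorescent RNA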
T3 sequence (G5EF15 whole entry): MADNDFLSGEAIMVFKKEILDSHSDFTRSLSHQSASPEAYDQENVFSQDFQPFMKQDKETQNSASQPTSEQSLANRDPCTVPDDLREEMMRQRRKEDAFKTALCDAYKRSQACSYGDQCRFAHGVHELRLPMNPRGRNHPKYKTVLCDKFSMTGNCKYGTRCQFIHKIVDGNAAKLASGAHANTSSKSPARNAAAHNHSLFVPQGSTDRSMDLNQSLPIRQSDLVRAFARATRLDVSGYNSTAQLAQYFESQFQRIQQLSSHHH

[8] = target: T4, Zinc finger protein mex-5 (Caenorhabditis elegans, UniProt Q9XUB2); assay: potency of MEX-5 RNA-binding blockers – biochemical, C. elegans, fluorescence polarization, dose response (AID 1960)
T4 sequence (Q9XUB2 whole entry): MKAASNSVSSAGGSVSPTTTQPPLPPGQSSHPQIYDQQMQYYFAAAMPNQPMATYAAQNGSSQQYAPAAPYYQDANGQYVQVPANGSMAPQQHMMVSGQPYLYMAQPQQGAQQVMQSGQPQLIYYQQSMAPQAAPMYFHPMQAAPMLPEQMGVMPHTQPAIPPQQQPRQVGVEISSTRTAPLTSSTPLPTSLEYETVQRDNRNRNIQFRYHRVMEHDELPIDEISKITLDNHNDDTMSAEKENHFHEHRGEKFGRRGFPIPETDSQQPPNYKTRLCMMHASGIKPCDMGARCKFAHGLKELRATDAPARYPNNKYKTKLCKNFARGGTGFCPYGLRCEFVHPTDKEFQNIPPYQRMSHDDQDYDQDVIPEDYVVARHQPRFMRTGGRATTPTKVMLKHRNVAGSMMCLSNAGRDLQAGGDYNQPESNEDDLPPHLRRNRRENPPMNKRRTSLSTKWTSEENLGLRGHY

[9] = Luminescence Cell-Based Dose Response HTS to Identify Activators of Luciferase Translation or Activity in H4 […] Cells. [Related pubchem assays: 1829 (Project Summary), 1814 (Primary HTS)]; format: functional
H4 = assay: Luminescence Cell-Based Dose Response HTS to Identify Activators of 5'UTR Stem-Loop Driven Prion Protein mRNA Translation in H4 Neuroglioblastoma Cells. [Related pubchem assays: 1829 (Project Summary), 1814 (Primary HTS)]; format: functional; conditions: Homo sapiens
[10] = NIH3T3 cell viability loss – ATP luminescence, mouse fibroblasts, counter-screen, dose response (AID 2010); format: functional, cell-based;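 also: cells exposed to compound for about 90 hours before reading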
[11] = Trypanosoma cruzi growth suppression in host cells – NIH3T3 host cells, beta-gal luminescence, confirmation (AID 2044); format: functional, cell-based;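 also: intracellular parasites grown in NIH/3T3 mouse fibroblasts as host cells; luminescent beta-galactosidase reporter signal from transgenic T. cruzi replicating inside host cells; inhibitors lower the luminescence signal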
Streptococcus = assay: GAS UMAA2166 growth inhibition – luminescence, BacTiterGlo, counter-screen for streptokinase expression inhibitor project, dose response (AID 1915); format: functional, organism-based;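 also: potency for reduction of bacterial viability or growth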
[12] = system: Streptococcus sp. 'group A'; assay: Streptococcus pyogenes SK(-)GAS viability under kanamycin – luminescence, BacTiterGlo, confirmation, counter-screen for streptokinase expression inhibitor project, dose response (AID 1900); format: functional, organism-based
[13] = microbe, parasite or virus in culture; format: functional; conditions: Mycobacterium tuberculosis
Streptokinase A = target: T5, Streptokinase A (Streptococcus pyogenes serotype M1, UniProt P10520); assay: viability-normalized secreted streptokinase activity reduction – plasminogen activation absorbance, OD405, dose response (AID 1914); format: functional, Streptococcus pyogenes M1 GAS;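 also: secreted streptokinase activity via plasminogen activation per viability signal from cell pellet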
T5 sequence (P10520 whole entry): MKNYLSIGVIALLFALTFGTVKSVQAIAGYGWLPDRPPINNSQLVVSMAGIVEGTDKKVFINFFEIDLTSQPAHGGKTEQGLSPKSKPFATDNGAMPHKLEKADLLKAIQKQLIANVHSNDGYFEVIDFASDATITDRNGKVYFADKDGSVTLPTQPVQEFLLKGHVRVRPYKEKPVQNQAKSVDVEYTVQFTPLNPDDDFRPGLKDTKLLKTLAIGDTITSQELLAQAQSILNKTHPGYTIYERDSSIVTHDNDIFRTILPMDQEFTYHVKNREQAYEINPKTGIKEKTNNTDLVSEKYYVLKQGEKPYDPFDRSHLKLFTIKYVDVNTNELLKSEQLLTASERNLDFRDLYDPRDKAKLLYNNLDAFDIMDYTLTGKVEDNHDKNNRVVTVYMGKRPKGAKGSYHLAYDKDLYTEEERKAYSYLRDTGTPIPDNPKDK

cells = format: functional
[14] = blockers of HIV-1 ZM109 envelope-driven cell-cell fusion – HeLa effector, CEM target cells, luciferase, cherry-pick, dose response (AID 652058); format: functional, cell-based;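 also: luciferase signal from HIV-1 Env mediated cell-cell fusion of effector and target cells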
BJ [15] = assay: cells; format: functional, cell-based; conditions: Homo sapiens
BJ [16] = assay: BJ-TERT fibroblast viability loss – cell-based, RAS-independent, luminescence, dose response (AID 1933); format: functional; conditions: Homo sapiens
[17] = viability of uninfected HEp-2 cells – cell-based, HTS, cytotoxicity control for RSV inhibitor project, dose response (AID 2410); format: functional; conditions: human respiratory syncytial virus
BJ [18] = assay: BJ-TERT-LT-ST fibroblast viability loss – cell-based, RAS-independent, luminescence, dose response (AID 1935); format: functional; conditions: Homo sapiens;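 also: BJ fibroblasts immortalized with TERT plus LT and ST oncogenes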
[19] = DRD fibroblast viability loss – cell-based, non-viral oncogenic, luminescence, dose response (AID 1934); format: functional; conditions: Homo sapiens
INS1 = assay: INS-1E survival protection against cytokine death – cell-based, luminescence, retest, dose response (AID 449756); format: functional; conditions: Rattus norvegicus;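 also: cell death triggered by IL-1 beta plus TNF-alpha plus IFN-gamma mixture; protective hits raise ATP signal compared with cytokine alone wells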
[20] = Luminescence Cell-Based Dose Retest to Confirm Inhibitors of Cancer Stem Cells. [Related pubchem assays (depositor defined):AID2717, AID2721]; format: functional; conditions: Homo sapiens

SMILES: COc1ccc(/C=C/c2nc(S(=O)(=O)c3ccccc3)c(NCCCN(C)C)o2)cc1OC
- AC50 [1]: 14.6 µM (active)

SMILES: CN(C)c1ccc(/C=C2\C(=N)N3N=C(CC(=O)N4CCCCC4)SC3=NC2=O)cc1
- EC50 [2]: 6.36 µM (active)

SMILES: C/C(=N\NC(=O)CSCc1ccc([N+](=O)[O-])cc1)c1ccccc1O
- IC50 [3]: > 20 µM (inactive)

SMILES: CCC1(C)Cc2c(sc3nnn(CC(=O)Nc4cccc5ccccc45)c(=O)c23)CO1 (stereo unspecified)
- EC50 [4]: 23.9 µM (active)
- EC50 [5]: 25.8 µM (active)

SMILES: C=CCC[C@@H](Cc1ccc(F)cc1)C(=O)OC[C@H](Cc1c[nH]c2ccccc12)NC(=O)[C@@H](CC=C)CC(=O)NCCO
- EC50 [2]: 11.4 µM (active)

SMILES: CC1=CC(C)(C)n2c(O)c(/N=N/C(=N)S)c3cc(C)cc1c32
- IC50 [3]: > 20 µM (inactive)

SMILES: Cc1ccccc1S(=O)(=O)N1[C@H](C#N)[C@H](c2ccc(C#CC3CCCC3)cc2)[C@@H]1CO
- AC50 [6]: 5.11 µM (active)

SMILES: O=[N+]([O-])c1ccc2nc(O)c(/C=C(\O)c3ccccc3)nc2c1
- EC50 [7]: 20.1 µM (active)
- EC50 [8]: > 300 µM (inconclusive)

SMILES: Cc1cccc(-c2nc(C#N)c(NCC3CCCO3)o2)c1 (stereo unspecified)
- EC50 [9]: 1.97 µM (active)
- EC50 (H4): 36 µM (active)

SMILES: Oc1ccc(Br)cc1/C=N/Nc1nc(N2CCCCC2)nc(N2CCOCC2)n1
- EC50 [10]: > 60 µM (not active)
- EC50 [11]: 1.91 µM (active)
- EC50 (Streptococcus): 24.7 µM (active)
- EC50 [12]: 3.48 µM (active)
- CC50 [13]: > 40 µM (active)
- EC50 (Streptokinase A): 33.6 µM (active)

SMILES: COc1ccc(NC(=O)C(c2cc3c(cc2[N+](=O)[O-])OCO3)N(C)c2ccccc2)cc1 (stereo unspecified)
- EC50 [2]: > 53 µM (inactive)

SMILES: Cc1ccsc1C1NC(=O)c2c(sc3c2CCN(C)C3)N1 (stereo unspecified)
- EC50 [2]: > 53 µM (inactive)

SMILES: O=C(NCC1CCCCC1)c1ccc(F)cc1Cl
- EC50 [9]: 107 µM (active)
- EC50 (H4): > 120 µM (not active)

SMILES: O=C(Nc1ccc(-c2nc3ccccc3c(=O)o2)cc1)c1ccco1
- IC50 (cells): 0.84 µM (active)

SMILES: CCOC(=O)CC(=O)Nc1ccc(C(=O)OCC)cc1
- IC50 (cells): 22.4 µM (active)

SMILES: CCOC(=O)c1sc2nc3n(c(=O)c2c1C)CCCCC3
- EC50 [9]: 27.9 µM (active)
- EC50 (H4): 101 µM (active)

SMILES: C/C(=N\NC(=O)c1cc([N+](=O)[O-])cc([N+](=O)[O-])c1)c1ccco1
- EC50 [10]: > 60 µM (not active)
- EC50 [11]: 0.768 µM (active)
- IC50 (cells): 3.35 µM (active)

SMILES: Cc1cc(O)c(CN(C)C)c2c1C(=O)/C(=C/c1ccco1)O2
- EC50 [7]: 32.1 µM (active)
- EC50 [8]: 39.8 µM (active)

SMILES: CCN(CC)S(=O)(=O)c1ccc(N/C=C2\C(=O)N(C)C(=O)C(C#N)=C2C)cc1
- EC50 [7]: 32.7 µM (active)
- EC50 [8]: 44.4 µM (active)

SMILES: COC(=O)C1CCN(C(=O)COC(=O)c2cc(S(=O)(=O)N3CCOCC3)ccc2C)CC1
- AC50 [14]: 17.5 µM (active)
- AC50 [1]: 45.6 µM (active)

SMILES: C=C[C@](C)(CC[C@@]1(C)C(C)CC(OC2OC(C)C(OC3OC(COC(C)=O)C(O)C(O)C3O)C(O)C2O)[C@@]2(C)C(C)=CCCC12)OC1OC(C)C(O[C@@H]2O[C@@H](C)C(O)C(O)[C@H]2O)C(O)C1O (stereo partly specified)
- IC50 [3]: > 20 µM (inactive)

SMILES: CCN(CC)c1ccc(N=Nc2nc[nH]n2)cc1
- EC50 [7]: 73.4 µM (active)
- EC50 [8]: > 300 µM (inconclusive)

SMILES: CCCC(=O)N(CCN1CCOCC1)c1nc2c(C)cccc2s1
- IC50 [3]: > 20 µM (inactive)

SMILES: NCCCC[C@@H](C(=O)N1CCNCC1)n1cc(CN)nn1
- IC50 [3]: > 20 µM (inactive)

SMILES: O=C1NC(=O)N(Cc2ccc(F)cc2)C(=O)/C1=C\c1ccc([N+](=O)[O-])s1
- IC50 (cells): 24.7 µM (active)

SMILES: O=C1Nc2cc(Cl)cnc2N2CCCC12 (stereo unspecified)
- EC50 [7]: 16.8 µM (active)
- EC50 [8]: 12.5 µM (active)

SMILES: CCc1nc2sc3c(c2c(=O)n1NC(=O)CCl)CCCC3
- EC50 (BJ [15]): > 150 µM (not active)
- EC50 (BJ [16]): > 150 µM (not active)
- CC50 [17]: 10.2 µM (active)
- EC50 (BJ [18]): > 150 µM (not active)
- EC50 [19]: > 150 µM (not active)

SMILES: Cc1cc(NC(=O)CSc2nc3c(c(=O)n2-c2ccc(Br)cc2)SCC3)no1
- EC50 [4]: 155 µM (active)

SMILES: Cc1cc(N2CCOCC2)nc(NCc2ccccc2)n1
- EC50 [2]: 5.68 µM (active)

SMILES: N#CC1=C(N)N2C(=C(C#N)C1c1ccc(Br)cc1)Nc1ccccc12 (stereo unspecified)
- AC50 (INS1): 3.56 µM (active)
- EC50 (BJ [15]): 62.4 µM (active)
- AC50 [20]: 0.794 µM (active)
- EC50 (BJ [16]): 11.8 µM (inconclusive)
- EC50 (BJ [18]): > 150 µM (inconclusive)
- EC50 [19]: 9.84 µM (active)
